This note sets out measurements from patent publication US12281149B2, “Modulators of G-protein coupled receptors” (priority 2021, dated 2025).

Structures are written as SMILES. *1 amine or outer side, *2 acyl side, *3 side chain or, on linkers, in order; H or OH if unused. Where a SMILES comes first, the peptide text is derived from it. Side-chain parts run from the residue outwards. [ ]: non-standard residue; d: D form. The star is where a group is joined. C20 diacid = O=C(O)CCCCCCCCCCCCCCCCCCC(=O)*; X31 = CC(C)(C(=S)NCCC(=O)*)c1cc(F)cc(C#N)c1; X73 = CC(C)(C(=S)NCCC(=O)*)c1ccc(F)c(F)c1; γGlu = O=C(O)[C@H](CCC(=O)[*:2])N[*:1]; X35 = N#Cc1cc(F)cc(C2(C(=O)*)CCCC2)c1; X59 = COc1ccc(C2(C(=O)*)CCCC2)cc1; AEEA = NCCOCCOCC(=O)O; Aib = CC(C)(N)C(=O)O; βAla = NCCC(=O)O Bounds are passed on as bounds.

Holding throughout (type): cell-based
Assay [1] addresses T1, GIP receptor (Homo sapiens, UniProt P48546).
T1 sequence (P48546 22-466): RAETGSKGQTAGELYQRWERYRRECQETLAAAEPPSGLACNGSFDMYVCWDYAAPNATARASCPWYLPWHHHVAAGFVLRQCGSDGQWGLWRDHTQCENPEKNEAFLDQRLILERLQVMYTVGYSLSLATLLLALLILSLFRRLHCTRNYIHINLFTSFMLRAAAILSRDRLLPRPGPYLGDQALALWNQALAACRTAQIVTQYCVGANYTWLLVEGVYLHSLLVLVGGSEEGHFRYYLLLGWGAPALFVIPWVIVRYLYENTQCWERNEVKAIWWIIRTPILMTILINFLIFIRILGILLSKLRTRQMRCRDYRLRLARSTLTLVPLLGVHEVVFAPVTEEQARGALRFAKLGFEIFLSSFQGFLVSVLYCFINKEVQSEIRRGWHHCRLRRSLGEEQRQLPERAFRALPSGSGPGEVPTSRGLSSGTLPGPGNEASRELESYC
Nature of the assay: PathHunter β-arrestin assay, GIP receptor. Details: host or cells: PathHunter CHO-K1 GIPR β-Arrestin Cell Line. As to conditions: β-arrestin-2 recruitment, PathHunter CHO-K1 GIPR β-Arrestin Cell Line, 90 min at 37° C.; normalized to GIP; read-out: GIPR β Arrestin EC50. A general note: Arrestin recruitment assays detect the binding of arrestin to an activated receptor.

Assay [2] concerns the target T1, GIP receptor. Nature of the assay: HitHunter cAMP assay, GIP receptor. The settings on record: for EC50: CHO cells stably expressing GIP receptor, cAMP accumulation, 30 min, read-out: EC50 GIP-1R; for Emax: CHO cells, cAMP, normalized to maximum signal from GIP (high) and DMSO (low), read-out: Emax GIP-1R.
Assay [3] deals with T2, GLP-1 receptor (Homo sapiens, UniProt P43220). Nature of the assay: PathHunter β-arrestin assay, GLP-1 receptor. On the set-up: host or cells: PathHunter CHO-K1 GLP1R β-Arrestin Cell Line. As to conditions: β-arrestin-2 recruitment, PathHunter CHO-K1 GLP1R β-Arrestin Cell Line, 90 min at 37° C.; normalized to GLP-1; read-out: GLP-1R β Arrestin EC50.
T2 sequence (P43220 24-463): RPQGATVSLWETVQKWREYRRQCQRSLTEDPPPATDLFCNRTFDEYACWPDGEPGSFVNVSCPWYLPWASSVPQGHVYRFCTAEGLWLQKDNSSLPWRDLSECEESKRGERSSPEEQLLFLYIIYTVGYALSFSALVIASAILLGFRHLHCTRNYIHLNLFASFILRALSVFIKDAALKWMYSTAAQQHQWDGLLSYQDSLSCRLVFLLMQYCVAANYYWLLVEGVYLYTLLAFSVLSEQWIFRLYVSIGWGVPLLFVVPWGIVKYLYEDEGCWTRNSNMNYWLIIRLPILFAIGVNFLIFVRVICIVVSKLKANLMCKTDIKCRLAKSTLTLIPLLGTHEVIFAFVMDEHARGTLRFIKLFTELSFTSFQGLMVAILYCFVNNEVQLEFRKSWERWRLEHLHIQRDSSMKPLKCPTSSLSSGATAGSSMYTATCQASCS
Assay [4] deals with T2, GLP-1 receptor. Nature of the assay: HitHunter cAMP assay, GLP-1 receptor. As to conditions: for EC50: CHO cells stably expressing human GLP-1 receptor, cAMP accumulation, 30 min, read-out: EC50 GLP-1R; for Emax: CHO cells, cAMP, normalized to maximum signal from GLP-1 (high) and DMSO (low), read-out: Emax GLP-1R.

As usually defined, the EC50 is the midpoint of the concentration-response curve. Broadly, the Emax is the size of the effect at its maximum, as opposed to the concentration needed.

On to `CC[C@H](C)[C@H](NC(=O)[C@H](CC(C)C)NC(=O)[C@H](Cc1c[nH]c2ccccc12)NC(=O)[C@H](CCC(N)=O)NC(=O)[C@@H](NC(=O)[C@H](Cc1ccccc1)NC(=O)[C@H](C)NC(=O)[C@H](CCCCNC(=O)COCCOCCNC(=O)COCCOCCNC(=O)CC[C@H](NC(=O)CCCCCCCCCCCCCCCCCCC(=O)O)C(=O)O)NC(=O)[C@H](CCC(N)=O)NC(=O)[C@H](C)NC(=O)[C@@H](NC(=O)[C@H](CCCCN)NC(=O)[C@H](CC(=O)O)NC(=O)[C@H](CC(C)C)NC(=O)C(C)(C)NC(=O)[C@@H](NC(=O)[C@H](CO)NC(=O)[C@H](Cc1ccc(O)cc1)NC(=O)[C@H](CC(=O)O)NC(=O)[C@H](CO)NC(=O)[C@@H](NC(=O)[C@H](Cc1ccccc1)NC(=O)[C@@H](NC(=O)CNC(=O)[C@H](CCC(=O)O)NC(=O)CCNC(=O)C1(c2ccc(OC)cc2)CCCC1)[C@@H](C)O)[C@@H](C)O)[C@@H](C)CC)[C@@H](C)CC)C(C)C)C(=O)N[C@@H](C)C(=O)NCC(=O)NCC(=O)N1CCC[C@H]1C(=O)N[C@@H](CO)C(=O)N[C@@H](CO)C(=O)NCC(=O)N[C@@H](C)C(=O)N1CCC[C@H]1C(=O)N1CCC[C@H]1C(=O)N1CCC[C@H]1C(=O)N[C@@H](CO)C(N)=O` [Compound 208] ({X59-βAla}-EGTFTSDYSI[Aib]LDKIAQK([AEEA-AEEA-γGlu-C20 diacid])AFVQWLIAGGPSSGAPPPS-NH2), for which the EC50 was less than 1 µM on GIP receptor [1], 0.001 to 0.01 µM on GIP receptor [2], greater than 1 µM on GLP-1 receptor [3] and 0.001 to 0.01 µM at GLP-1 receptor [4]. The Emax is 109% on GIP receptor [2] and 111% on GLP-1 receptor [4].
With `CC[C@H](C)[C@H](NC(=O)[C@H](CO)NC(=O)[C@H](Cc1ccc(O)cc1)NC(=O)[C@H](CC(=O)O)NC(=O)[C@H](CO)NC(=O)[C@@H](NC(=O)[C@H](Cc1ccccc1)NC(=O)[C@@H](NC(=O)CNC(=O)[C@H](CCC(=O)O)NC(=O)CCNC(=O)C1(c2ccccc2)CCOCC1)[C@@H](C)O)[C@@H](C)O)C(=O)N[C@@H](Cc1ccc(O)cc1)C(=O)N[C@@H](CC(C)C)C(=O)N[C@@H](CC(=O)O)C(=O)N[C@@H](CCCCN)C(=O)N[C@@H](CCC(N)=O)C(=O)N[C@@H](C)C(=O)N[C@@H](C)C(=O)NC(C)(C)C(=O)N[C@@H](CCC(=O)O)C(=O)N[C@@H](Cc1ccccc1)C(=O)N[C@H](C(=O)N[C@@H](CC(N)=O)C(=O)N[C@@H](Cc1c[nH]c2ccccc12)C(=O)N[C@@H](CC(C)C)C(=O)N[C@@H](CC(C)C)C(=O)N[C@@H](C)C(=O)NCC(=O)NCC(=O)N1CCC[C@H]1C(=O)N[C@@H](CO)C(=O)N[C@@H](CO)C(=O)NCC(=O)N[C@@H](C)C(=O)N1CCC[C@H]1C(=O)N1CCC[C@H]1C(=O)N1CCC[C@H]1C(=O)N[C@@H](CO)C(=O)N[C@@H](CCCCNC(=O)COCCOCCNC(=O)COCCOCCNC(=O)CC[C@H](NC(=O)CCCCCCCCCCCCCCCCCCC(=O)O)C(=O)O)C(N)=O)C(C)C` [Compound 154], the EC50 is greater than 1 µM on GIP receptor [1], 0.01 to 0.1 µM at GIP receptor [2], greater than 1 µM at GLP-1 receptor [3] and 0.001 to 0.01 µM on GLP-1 receptor [4]. For the same compound, the Emax at GIP receptor [2] turned out to be 106%; on GLP-1 receptor [4] it was 99%.
As to `CC[C@H](C)[C@H](NC(=O)[C@H](CC(C)C)NC(=O)[C@H](Cc1c[nH]c2ccccc12)NC(=O)[C@H](CCC(N)=O)NC(=O)[C@@H](NC(=O)[C@H](Cc1ccccc1)NC(=O)[C@H](C)NC(=O)[C@H](CCCCNC(=O)COCCOCCNC(=O)COCCOCCNC(=O)CC[C@H](NC(=O)CCCCCCCCCCCCCCCCCCC(=O)O)C(=O)O)NC(=O)[C@H](CCC(N)=O)NC(=O)[C@H](C)NC(=O)[C@@H](NC(=O)[C@H](CCCCN)NC(=O)[C@H](CC(=O)O)NC(=O)[C@H](CC(C)C)NC(=O)C(C)(C)NC(=O)[C@@H](NC(=O)[C@H](CO)NC(=O)[C@H](Cc1ccc(O)cc1)NC(=O)[C@H](CC(=O)O)NC(=O)[C@H](CO)NC(=O)[C@@H](NC(=O)[C@H](Cc1ccccc1)NC(=O)[C@@H](NC(=O)CNC(=O)[C@H](CCC(=O)O)NC(=O)CCNC(=S)C(C)(C)c1ccc(F)c(F)c1)[C@@H](C)O)[C@@H](C)O)[C@@H](C)CC)[C@@H](C)CC)C(C)C)C(=O)N[C@@H](C)C(=O)NCC(=O)NCC(=O)N1CCC[C@H]1C(=O)N[C@@H](CO)C(=O)N[C@@H](CO)C(=O)NCC(=O)N[C@@H](C)C(=O)N1CCC[C@H]1C(=O)N1CCC[C@H]1C(=O)N1CCC[C@H]1C(=O)N[C@@H](CO)C(N)=O` [Compound 137] (X73-EGTFTSDYSI[Aib]LDKIAQK([AEEA-AEEA-γGlu-C20 diacid])AFVQWLIAGGPSSGAPPPS-NH2), the EC50 on GIP receptor [1] was greater than 1 µM; at GIP receptor [2], 0.01 to 0.1 µM; on GLP-1 receptor [3], greater than 1 µM; at GLP-1 receptor [4], 0.0001 to 0.001 µM. For the same compound, the Emax on GIP receptor [2] amounted to 87%; on GLP-1 receptor [4], 99%.
As to `CC[C@H](C)[C@H](NC(=O)[C@H](CC(C)C)NC(=O)[C@H](Cc1c[nH]c2ccccc12)NC(=O)[C@H](CCC(N)=O)NC(=O)[C@@H](NC(=O)[C@H](Cc1ccccc1)NC(=O)[C@H](C)NC(=O)[C@H](CCCCNC(=O)COCCOCCNC(=O)COCCOCCNC(=O)CC[C@H](NC(=O)CCCCCCCCCCCCCCCCCCC(=O)O)C(=O)O)NC(=O)[C@H](CCC(N)=O)NC(=O)[C@H](C)NC(=O)[C@@H](NC(=O)[C@H](CCCCN)NC(=O)[C@H](CC(=O)O)NC(=O)[C@H](CC(C)C)NC(=O)C(C)(C)NC(=O)[C@@H](NC(=O)[C@H](CO)NC(=O)[C@H](Cc1ccc(O)cc1)NC(=O)[C@H](CC(=O)O)NC(=O)[C@H](CO)NC(=O)[C@@H](NC(=O)[C@H](Cc1ccccc1)NC(=O)[C@@H](NC(=O)CNC(=O)[C@H](CCC(=O)O)NC(=O)CCNC(=S)C(C)(C)c1cc(F)cc(C#N)c1)[C@@H](C)O)[C@@H](C)O)[C@@H](C)CC)[C@@H](C)CC)C(C)C)C(=O)N[C@@H](C)C(=O)NCC(=O)NCC(=O)N1CCC[C@H]1C(=O)N[C@@H](CO)C(=O)N[C@@H](CO)C(=O)NCC(=O)N[C@@H](C)C(=O)N1CCC[C@H]1C(=O)N1CCC[C@H]1C(=O)N1CCC[C@H]1C(=O)N[C@@H](CO)C(N)=O` [Compound 135] (X31-EGTFTSDYSI[Aib]LDKIAQK([AEEA-AEEA-γGlu-C20 diacid])AFVQWLIAGGPSSGAPPPS-NH2), the EC50 at GIP receptor [1] is greater than 1 µM; on GIP receptor [2], 0.01 to 0.1 µM; at GLP-1 receptor [3] it was greater than 1 µM; at GLP-1 receptor [4], 0.0001 to 0.001 µM. Moreover, the figures for the maximal effect (Emax) on GIP receptor [2] and at GLP-1 receptor [4] were 87% and 99%, respectively.
As for `CC[C@H](C)[C@H](NC(=O)[C@H](CC(C)C)NC(=O)[C@H](Cc1c[nH]c2ccccc12)NC(=O)[C@H](CCC(N)=O)NC(=O)[C@@H](NC(=O)[C@H](Cc1ccccc1)NC(=O)[C@H](C)NC(=O)[C@H](CCCCNC(=O)COCCOCCNC(=O)COCCOCCNC(=O)CC[C@H](NC(=O)CCCCCCCCCCCCCCCCCCC(=O)O)C(=O)O)NC(=O)[C@H](CCC(N)=O)NC(=O)[C@H](C)NC(=O)[C@@H](NC(=O)[C@H](CCCCN)NC(=O)[C@H](CC(=O)O)NC(=O)[C@H](CC(C)C)NC(=O)C(C)(C)NC(=O)[C@@H](NC(=O)[C@H](CO)NC(=O)[C@H](Cc1ccc(O)cc1)NC(=O)[C@H](CC(=O)O)NC(=O)[C@H](CO)NC(=O)[C@@H](NC(=O)[C@H](Cc1ccccc1)NC(=O)[C@@H](NC(=O)CNC(=O)[C@H](CCC(=O)O)NC(=O)CCNC(=O)C1(c2cc(F)cc(C#N)c2)CCCC1)[C@@H](C)O)[C@@H](C)O)[C@@H](C)CC)[C@@H](C)CC)C(C)C)C(=O)N[C@@H](C)C(=O)NCC(=O)NCC(=O)N1CCC[C@H]1C(=O)N[C@@H](CO)C(=O)N[C@@H](CO)C(=O)NCC(=O)N[C@@H](C)C(=O)N1CCC[C@H]1C(=O)N1CCC[C@H]1C(=O)N1CCC[C@H]1C(=O)N[C@@H](CO)C(N)=O` [Compound 164] ({X35-βAla}-EGTFTSDYSI[Aib]LDKIAQK([AEEA-AEEA-γGlu-C20 diacid])AFVQWLIAGGPSSGAPPPS-NH2), the EC50 is greater than 1 µM at GIP receptor [1], 0.001 to 0.01 µM on GIP receptor [2], greater than 1 µM at GLP-1 receptor [3] and 0.001 to 0.01 µM on GLP-1 receptor [4]. For the same compound, the Emax on GIP receptor [2] is 106%; at GLP-1 receptor [4], 112%.
